Literature values as cited in patent publication US6967090B2, “Nucleic acid and protein sequences of bovine epidermal growth factor” (Her Majesty the Queen in right of Canada, as represented by …, priority 2001, dated 2005).

How the values were obtained:
[1] = daily, 100 μg/kg body weight for nine days; U.S. Pat. No. 5,753,622
enteric infections = details: oral administration; Buret et al., 1997
rotavirus = details: piglets infected with rotavirus; Zijlstra et al., 1994
gut cells = details: piglet; WO 88/04180
[2] = system: jejunal brush-border membranes; details: rodent
gastric acid secretion = details: Hollenberg and Gregory 1980
EGF receptor = EGF receptor (Homo sapiens, UniProt P00533); details: Tadaki and Niyogi, 1993

For “EGF: 6 kDa polypeptide composed of 53 amino acids; species of origin not stated in the cited studies”, the weight gain [1] is listed as “enhances weight gain”, the “rate of enteric infections” value (enteric infections) is listed as “reduces the rate of enteric infections” and the “reduction in weight gain caused by infection” value (enteric infections) is listed as “prevents the reduction in weight gain caused by infection”. The intestinal functions (rotavirus) was “improves intestinal functions”, the “lactase and alkaline phosphatase activities” value (gut cells) was “without any marked effect” and the “sucrase and maltase activity” value (gut cells) was “enhancing both sucrase and maltase activity”. For the same substance, the “electrolytes, glucose and proline transport” value [2] was “increases electrolytes, glucose and proline transport”.
In the case of “human EGF, lacking the last five amino acids on the COOH end: truncated human EGF lacking the last five amino acids on the COOH end (NSDSECPLSHDGYCLHDGVCMYIEALDKYACNCVVGYIGERCQYRDLK; not fully specified; Epidermal growth factor; UniProt P01133 971-1018, looked up, fragment)”, the “capacity to inhibit gastric acid secretion” value (gastric acid secretion) is given as “retains its capacity to inhibit gastric acid secretion”.
For “human EGF: human EGF variant with tyrosine replaced by phenylalanine at position 13 (NSDSECPLSHDGFCLHDGVCMYIEALDKYACNCVVGYIGERCQYRDLKWWELR; not fully specified; Epidermal growth factor; UniProt P01133 971-1023, looked up, variant Y13F)”, the “effect of substitution on binding to receptor” value (EGF receptor) is given as “little effect on the binding”.
